Results reported in US9789101B2, “Methods and compositions for treating microbial infection using pyrroloquinone” (HELPERBY THERAPEUTICS LIMITED, priority 2010, dated 2017).
Where a name gives a salt, the structure may show the parent alone.

What was measured:
[1] = tested on: Mupirocin Resistant S. aureus (28 Passages); experiment: Chequerboard analysis of HT00800059 and mupirocin against mupirocin resistant S. aureus (28 passages); assay type: cell-based, Staphylococcus aureus
Experimental: (§1) Staphylococcus aureus (Oxford); Gram positive; Reference strain.
(§2) Log phase growth of mupirocin resistant Staphylococcus aureus (MSSA) was carried out as follows: • Bacteria were grown in 10 ml of nutrient broth (No. 2, (Oxoid)) overnight at 37° C. with continuous shaking at 120 rpm. The overnight cultures were diluted 1000× with iso-sensitest broth. The cultures were incubated at 37° C. with shaking for 1-2 hours to reach log CFU 6. Viability of the bacteria was estimated by colony forming unit (CFU) counts. From serial 10-fold dilutions of the experimental cultures, 100 μl samples were added to triplicate plates of nutrient agar plates (Oxoid) or blood agar plates (Oxoid). CFUs were counted after incubation of the plates at 37° C. for 24 hours.
(§3) Bacterial cultures: 10 μl of overnight cultures was added to 10 ml of fresh iso-sensitest broth to make the inoculation to 10^6 CFU/ml. 290 μl of the cell suspension was added to each well of the 96 well plate, which was incubated at 37° C. for 24 hours. 300 μl of iso-sensitest broth without bacterial cells were added to wells of the plate as a no bacterial control.
(§4) MIC determination: The optical density of the bacterial cells was read at 405 nm using a plate reader (Bio TEK). The MIC concentration was determined as the lowest concentration of drug which inhibits the bacterial growth.
(§5) Mupirocin was dissolved in DMSO to the stock concentration of 10 mg/ml. HT00800059 was dissolved in H2O to the stock solution 30.07 mg/ml.
(§6) Mupirocin (10 mg/ml) was firstly diluted to 3.84 mg/ml, then further diluted in a serial of 2 fold dilutions. HT00800059 (30.7 mg/ml) was performed in a serial of 2 fold dilutions.
(§7) This was followed by the addition of 280 μl of log phase culture at 10^6 CFU/ml to make the final concentrations of each drug as shown in Table 1 and Table 2.
(§8) In the above table, values in bold text are for HT00800059. Values in plain text are for mupirocin. The numbers shown in each well are μg/ml.
(§9) Incubation of the compounds with the bacterial suspension was carried out for 24 hours. The kill effects of the drug combination were measured by optical density reading at 405 nm with a plate reader (Bio TEK).
(§10) The fractional inhibitory concentration (FIC) index was carried out as following: (MIC of drug A, tested in combination)/(MIC of drug A, tested alone)+(MIC of drug B, tested in combination)/(MIC of drug B, tested alone). The interaction was defined as synergistic if the FIC index was <1, additive if the FIC index was =1 and antagonistic if the FIC index was >1.

[2] = tested on: Mupirocin Resistant S. aureus (24 Passages); experiment: Chequerboard analysis of HT00800059 and mupirocin against mupirocin resistant S. aureus (24 passages); assay type: cell-based, Staphylococcus aureus
Experimental: as §1, §2, §3, §4, §5, §6, §7, §8, §9, §10

[3] = tested on: log phase Staphylococcus aureus; experiment: Chequerboard analysis of HT00800059 and mupirocin against log phase Staphylococcus aureus; assay type: cell-based, Staphylococcus aureus (Oxford); details: for optical density reading at 405 nm: 24 hours
Experimental: Staphylococcus aureus (Oxford); Gram positive; Reference strain. Log phase growth of […] sensitive Staphylococcus aureus (MSSA) was carried out as follows: • Bacteria were grown in 10 ml of nutrient broth (No. 2, (Oxoid)) overnight at 37° C. with continuous shaking at 120 rpm. […] The cultures were incubated at 37° C. with shaking for 1-2 hours to reach log CFU 6. Viability of the bacteria was estimated by colony forming unit (CFU) counts. From serial 10-fold dilutions of the experimental cultures, 100 μl samples were added to triplicate plates of nutrient agar plates (Oxoid) or blood agar plates (Oxoid). CFUs were counted after incubation of the plates at 37° C. for 24 hours. […] 290 μl of the cell suspension was added to each well of the 96 well plate, which was incubated at 37° C. for 24 hours. […] MIC determination: The optical density of the bacterial cells was read at 405 nm using a plate reader (Bio TEK). The MIC concentration was determined as the lowest concentration of drug which inhibits the bacterial growth. […] HT00800059 was dissolved in H2O to the stock solution 30.07 mg/ml. […] HT00800059 (30.7 mg/ml) was performed in a serial of 2 fold dilutions. This was followed by the addition of 280 μl of log phase culture at 10^6 CFU/ml to make the final concentrations of each drug as shown. In the above table, values in bold text are for HT00800059. Values in plain text are for mupirocin. The numbers shown in each well are μg/ml. Incubation of the compounds with the bacterial suspension was carried out for 24 hours. The kill effects of the drug combination were measured by optical density reading at 405 nm with a plate reader (Bio TEK). The fractional inhibitory concentration (FIC) index was carried out as following: (MIC of drug A, tested in combination)/(MIC of drug A, tested alone)+(MIC of drug B, tested in combination)/(MIC of drug B, tested alone). The interaction was defined as synergistic if the FIC index was <1, additive if the FIC index was =1 and antagonistic if the FIC index was >1.

[4] = tested on: log phase (i.e. multiplying) bacteria; details: J. Am. Pharm. Assoc. 1956; cited from earlier work
[5] = Staphylococcus aureus, read-out: alone MIC

SMILES: CCCCOc1ccc(C(=O)CCN2CCCCC2)cc1 [HT00800059, dyclonine (1-(4-Butoxyphenyl)-3-(1-piperidinyl)-1-propanone) hydrochloride]
- MIC [1, 5]: 512 mg/L
- MIC before combination ([1]; resistant strain 28 passages): 512 mg/L
- MIC post combination ([1]; resistant strain 28 passages): 64 mg/L
- HT00800059 MIC in combination ([1]; with mupirocin 32 μg/ml, 28 passages): 64 mg/L
- MIC [2, 5]: 512 mg/L
- MIC before combination ([2]; resistant strain 24 passages): 512 mg/L
- MIC post combination ([2]; resistant strain 24 passages): 64 mg/L
- HT00800059 MIC in combination ([2]; with mupirocin 8 μg/ml, 24 passages): 64 mg/L
- MIC [3, 5]: 512 mg/L
- MIC before combination ([3]; iso-sensitest broth): 512 mg/L
- MIC post combination ([3]; iso-sensitest broth): 64 mg/L
- optical density reading at 405 nm ([3]; iso-sensitest broth, HT00800059 1 μg/ml, mupirocin μg/ml: 1,0.5,0.25,0.125,0.0625,0.03125,0.015625,0): 1.49
- optical density reading at 405 nm ([3]; iso-sensitest broth, HT00800059 2 μg/ml, mupirocin μg/ml: 1,0.5,0.25,0.125,0.0625,0.03125,0.015625,0): 1.47
- optical density reading at 405 nm ([3]; iso-sensitest broth, HT00800059 4 μg/ml, mupirocin μg/ml: 1,0.5,0.25,0.125,0.0625,0.03125,0.015625,0): 1.46
- optical density reading at 405 nm ([3]; iso-sensitest broth, HT00800059 8 μg/ml, mupirocin μg/ml: 1,0.5,0.25,0.125,0.0625,0.03125,0.015625,0): 1.47
- optical density reading at 405 nm ([3]; iso-sensitest broth, HT00800059 16 μg/ml, mupirocin μg/ml: 1,0.5,0.25,0.125,0.0625,0.03125,0.015625,0): 1.52
- optical density reading at 405 nm ([3]; iso-sensitest broth, HT00800059 32 μg/ml, mupirocin μg/ml: 1,0.5,0.25,0.125,0.0625,0.03125,0.015625,0): 1.55
- optical density reading at 405 nm ([3]; iso-sensitest broth, HT00800059 64 μg/ml, mupirocin μg/ml: 1,0.5,0.25,0.125,0.0625,0.03125,0.015625,0): 1.34
- optical density reading at 405 nm ([3]; iso-sensitest broth, HT00800059 128 μg/ml, mupirocin μg/ml: 1,0.5,0.25,0.125,0.0625,0.03125,0.015625,0): 1.20
- optical density reading at 405 nm ([3]; iso-sensitest broth, HT00800059 256 μg/ml, mupirocin μg/ml: 1,0.5,0.25,0.125,0.0625,0.03125,0.015625,0): 1.09
- optical density reading at 405 nm ([3]; iso-sensitest broth, HT00800059 512 μg/ml, mupirocin μg/ml: 1,0.5,0.25,0.125,0.0625,0.03125,0.015625,0): 0.36
- optical density reading at 405 nm ([3]; iso-sensitest broth, HT00800059 1024 μg/ml, mupirocin μg/ml: 1,0.5,0.25,0.125,0.0625,0.03125,0.015625,0): 0.36
- MIC before combination ([3]; nutrient broth): 512 mg/L
- MIC post combination ([3]; nutrient broth): 64 mg/L
- optical density reading at 405 nm ([3]; nutrient broth, HT00800059 1 μg/ml, mupirocin μg/ml: 1,0.5,0.25,0.125,0.625 [sic],0.03125,0.15625 [sic],0): 0.858
- optical density reading at 405 nm ([3]; nutrient broth, HT00800059 2 μg/ml, mupirocin μg/ml: 1,0.5,0.25,0.125,0.625 [sic],0.03125,0.15625 [sic],0): 0.884
- optical density reading at 405 nm ([3]; nutrient broth, HT00800059 4 μg/ml, mupirocin μg/ml: 1,0.5,0.25,0.125,0.625 [sic],0.03125,0.15625 [sic],0): 0.885
- optical density reading at 405 nm ([3]; nutrient broth, HT00800059 8 μg/ml, mupirocin μg/ml: 1,0.5,0.25,0.125,0.625 [sic],0.03125,0.15625 [sic],0): 0.867
- optical density reading at 405 nm ([3]; nutrient broth, HT00800059 16 μg/ml, mupirocin μg/ml: 1,0.5,0.25,0.125,0.625 [sic],0.03125,0.15625 [sic],0): 0.840
- optical density reading at 405 nm ([3]; nutrient broth, HT00800059 32 μg/ml, mupirocin μg/ml: 1,0.5,0.25,0.125,0.625 [sic],0.03125,0.15625 [sic],0): 0.759
- optical density reading at 405 nm ([3]; nutrient broth, HT00800059 64 μg/ml, mupirocin μg/ml: 1,0.5,0.25,0.125,0.625 [sic],0.03125,0.15625 [sic],0): 0.721
- optical density reading at 405 nm ([3]; nutrient broth, HT00800059 128 μg/ml, mupirocin μg/ml: 1,0.5,0.25,0.125,0.625 [sic],0.03125,0.15625 [sic],0): 0.528
- optical density reading at 405 nm ([3]; nutrient broth, HT00800059 256 μg/ml, mupirocin μg/ml: 1,0.5,0.25,0.125,0.625 [sic],0.03125,0.15625 [sic],0): 0.524
- optical density reading at 405 nm ([3]; nutrient broth, HT00800059 512 μg/ml, mupirocin μg/ml: 1,0.5,0.25,0.125,0.625 [sic],0.03125,0.15625 [sic],0): 0.284
- optical density reading at 405 nm ([3]; nutrient broth, HT00800059 1024 μg/ml, mupirocin μg/ml: 1,0.5,0.25,0.125,0.625 [sic],0.03125,0.15625 [sic],0): 0.291
- HT00800059 MIC in combination ([3]; with mupirocin 0.125 μg/ml): 64 mg/L
- activity in vitro against a variety of log phase bacteria [4]: activity
